{"source": "patent US9018259B2", "about": "“Treatment of cancer using benzoic acid derivatives” (New York University, priority 2004, dated 2015)", "key": {"[1]": {"tested_on": "tyrosinase (from mushrooms)", "assay": "Purified tyrosinase activity, formation of DOPAchrome from L-DOPA", "type": "biochemical", "conditions": "at 8.0 mM, up to 10 minutes; L-DOPA 8.0 mM, 800 U/ml tyrosinase; FIG. 2", "procedure": "Activity of purified tyrosinase was measured by monitoring the formation of DOPAchrome. Briefly, a fixed concentration of L-DOPA (8.0 mM) was incubated with 800 U/ml tyrosinase (from mushrooms-Sigma, St. Louis, Mo.) in the absence or presence of increasing concentrations of PABA, compound 44 (C-44) and compound 45 (C-45) (see FIG. 1 for structures) for indicated time points (see FIG. 2 for concentrations and time points). At each time point, 100 μl of the reaction mixture was measured. Data points represent the mean optical density at 475 nm±SD from triplicate wells."}, "[2]": {"tested_on": "4T1 breast carcinoma cells", "assay": "Tumor cell proliferation, WST-1 tetrazolium salt cleavage", "type": "cell-based", "conditions": "50 μg/ml test compound for 3 days, with or without 0.01 μM TAXOL for additional 48 hours; compared to untreated control; FIG. 3C", "procedure": "(§1) Tumor cell proliferation was assessed by monitoring mitochondrial dehydrogenase activity as detected by tetrazolium salt cleavage using a commercially available kit (WST-1; Roche, Indianapolis, Ind.). Briefly, B16F10 melanoma cells, Lewis Lung carcinoma cells, and 4T1 breast carcinoma cells (1×10^6) were resuspended in PABA-free growth medium supplemented with 2.0% fetal bovine serum and 50 μg/ml of test compound (as shown in FIG. 1) Following incubation for 3 days, the cells were either treated or not treated with 0.01 μM TAXOL® (paclitaxel) and incubated for an additional 48 hours. Proliferation was measured; data points represent the mean optical density at 490 nm±SD from triplicate wells."}, "B16F10 melanoma cells [3]": {"tested_on": "B16F10 melanoma cells", "assay": "Tumor cell proliferation, WST-1 tetrazolium salt cleavage", "type": "cell-based", "conditions": "50 μg/ml test compound for 3 days, with or without 0.01 μM TAXOL for additional 48 hours; compared to untreated control; FIG. 3A", "procedure": "as §1"}, "[4]": {"tested_on": "Lewis Lung carcinoma cells", "assay": "Tumor cell proliferation, WST-1 tetrazolium salt cleavage", "type": "cell-based", "conditions": "50 μg/ml test compound for 3 days, with or without 0.01 μM TAXOL for additional 48 hours; compared to untreated control; FIG. 3B", "procedure": "as §1"}, "B16F10 melanoma cells [5]": {"tested_on": "B16F10 melanoma cells", "assay": "In vivo tumor growth of B16F10 xenografts in nude mice", "conditions": "B16F10 s.c. xenograft, daily intraperitoneal injection for 15 days, TAXOL 0.5 μM, C-45 100 μg, FIG. 4", "procedure": "In addition, tumor growth in vivo of xenografts of B16F10 melanoma cells in nude mice was determined. Briefly, subconfluent cultures of B16F10 cells were harvested, washed, and resuspended in sterile PBS. Female nude mice were injected subcutaneously with 1×10^6 cells per mouse and tumors were allowed to grow for 3 days. After 3 days, mice were either untreated or treated daily for 15 days by intraperitoneal injection of TAXOL® (paclitaxel) (0.5 μM), C-45 (100 μg), or a combination of TAXOL® (paclitaxel) and C-45. Tumor growth was determined weekly by caliper measurements. After 15 days, the mice were sacrificed and tumor volume was determined by standard methods using the formula […], where V=volume, L=length, and W=width."}, "B16F10 melanoma cells [6]": {"tested_on": "B16F10 melanoma cells", "assay": "Chick embryo tumor growth model", "type": "in vivo, chick embryos", "conditions": "B16F10 cells cultured with 50 μg/ml C-45 at least 7 days before implantation; for growth of B16F10 tumors in chick embryos, with or without TAXOL: TAXOL 0.01 μM, FIG. 5B", "procedure": "The chick embryo tumor growth model was used to determine whether C-45 enhances the ability of TAXOL® (paclitaxel) or ionizing radiation to inhibit tumor growth. Briefly, B16F10 melanoma cells were cultured in growth medium in the presence or absence of 50 μg/ml C-45 for at least 7 days. Following harvesting and washing, about 2×10^5 tumor cells were implanted onto the chorioallontoic membranes of 10 day-old chick embryos and incubated for at least 24 hours. Following incubation, the embryos were treated with either a single fractionated dose of radiation (5.0 Gy) or TAXOL® (paclitaxel) (0.01 μM) and incubated for an additional 7 days. The embryos were sacrificed and tumors were resected and weighed (5-10 embryos per condition)."}, "BRCA-2": {"tested_on": "BRCA-2", "assay": "BRCA-2 protein expression in G361 melanoma cells treated with PABA", "type": "cell-based", "conditions": "G361 human melanoma cells treated with PABA; data not shown", "from_the_text": "(§2) To determine whether tumor cells abnormally express and signal through the PXR/SXR receptor compared to their non-transformed counterparts, and thus, candidates for treatment with PXR/SXR agonists, immortalized, non-transformed cells and sub-confluent transformed, tumorigenic cells will be cultured in the presence or absence of various concentrations of a known PXR/SXR activator, e.g., benzoic acid derivatives, and a negative control, e.g., streptomycin, for a pre-determined time e.g., 5 days. Cell lyses will be achieved as described above. Following lyses, about 15 μg/lane of protein will be loaded and separated by 10% SDS-PAGE, followed by transfer to nitrocellulose membranes. Membranes will then incubated in the presence of e.g., monoclonal antibody 39048, specific for the PXR/SXR nuclear receptor, followed by washing and labeling with a peroxidase-labeled secondary antibody.\n(§3) Similarly, to evaluate expression of cell cycle proteins that may be regulated by PXR/SXR activation in response to drug treatment, membranes as prepared above will be incubated with commercially available monoclonal antibodies such as PC410 (Chemicon, Temecula, Calif.), directed against β-integrin, as a positive control, monoclonal antibody 3303, specific for BRCA-2 (QED Biosciences, San Diego, Calif.), and with monoclonal antibody AB-3, directed against CDC25A (NeoMakers Inc). […]"}, "CDC25A": {"tested_on": "CDC25A", "assay": "CDC25A protein expression in G361 melanoma cells treated with PABA", "type": "cell-based", "conditions": "G361 human melanoma cells treated with PABA; data not shown", "from_the_text": "as §2, §3"}, "PXR/SXR receptor": {"target": "T1, PXR/SXR receptor (Homo sapiens, UniProt O75469)", "T1 sequence (O75469 1-434)": "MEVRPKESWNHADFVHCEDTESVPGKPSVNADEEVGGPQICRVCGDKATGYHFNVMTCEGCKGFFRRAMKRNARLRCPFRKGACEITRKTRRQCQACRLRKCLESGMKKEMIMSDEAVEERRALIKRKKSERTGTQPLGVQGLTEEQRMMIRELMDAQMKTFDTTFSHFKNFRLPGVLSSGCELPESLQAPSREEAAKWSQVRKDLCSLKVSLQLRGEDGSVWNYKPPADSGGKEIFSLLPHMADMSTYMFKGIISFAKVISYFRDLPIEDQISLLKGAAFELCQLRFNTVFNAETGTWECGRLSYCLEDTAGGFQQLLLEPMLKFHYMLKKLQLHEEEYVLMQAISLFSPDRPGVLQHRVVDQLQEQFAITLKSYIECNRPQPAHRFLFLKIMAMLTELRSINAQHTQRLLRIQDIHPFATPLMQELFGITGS", "conditions": "Moore et al., Mol. Endocrinol. 2002; 16: 977-986; cited from earlier work"}}}
{"smiles": "C=CCNc1ccc(C(=O)O)cc1", "note": "[C-45]", "values": [{"measurement": "inhibition of tyrosinase activity (DOPAchrome formation, optical density at 475 nm)", "setting": "[1]", "result": "inhibited tyrosinase activity"}, {"measurement": "in vitro proliferation of 4T1 breast carcinoma cells (optical density at 490 nm)", "setting": "[2]", "result": "inhibited in vitro proliferation"}, {"measurement": "in vitro proliferation of B16F10 cells (optical density at 490 nm)", "setting": "B16F10 melanoma cells [3]", "result": "inhibited in vitro proliferation"}, {"measurement": "in vitro proliferation of Lewis Lung carcinoma cells (optical density at 490 nm)", "setting": "[4]", "result": "inhibited in vitro proliferation"}, {"measurement": "in vivo tumor growth (tumor volume) compared to untreated controls", "setting": "B16F10 melanoma cells [5]", "result": "neither TAXOL® (paclitaxel) nor C-45 inhibited in vivo tumor growth"}, {"measurement": "growth of B16F10 tumors in chick embryos, with or without TAXOL", "setting": "B16F10 melanoma cells [6]", "result": "inhibited the growth of the B16F10 tumors significantly"}, {"measurement": "tumor weight / tumor growth in chick embryos, with or without radiation", "setting": "B16F10 melanoma cells [6]; single dose of radiation 5.0 Gy, FIG. 5A", "result": "reduced tumor weight significantly"}]}
{"smiles": "Nc1ccc(C(=O)O)cc1", "note": "[PABA, para-amino-benzoic acid]", "values": [{"measurement": "inhibition of tyrosinase activity (DOPAchrome formation, optical density at 475 nm)", "setting": "[1]", "result": "inhibited tyrosinase activity"}, {"measurement": "protein expression of DNA repair protein BRCA-2", "setting": "BRCA-2", "result": "decreased protein expression of DNA repair protein BRCA-2"}, {"measurement": "expression of cell-cycle progression checkpoint protein CDC25A", "setting": "CDC25A", "result": "increase expression of cell-cycle progression checkpoint protein CDC25A"}, {"measurement": "binding and activation of the PXR/SXR receptor", "setting": "PXR/SXR receptor", "result": "bind and activate the PXR/SXR receptor"}]}
{"smiles": "CC(=O)O[C@H]1C(=O)[C@@]2(C)[C@H]([C@H](OC(=O)c3ccccc3)[C@]3(O)C[C@H](OC(=O)[C@H](O)[C@@H](NC(=O)c4ccccc4)c4ccccc4)C(C)=C1C3(C)C)[C@]1(OC(C)=O)CO[C@@H]1C[C@@H]2O", "note": "[TAXOL® (paclitaxel), paclitaxel]", "values": [{"measurement": "in vitro proliferation of 4T1 breast carcinoma cells (optical density at 490 nm)", "setting": "[2]", "result": "inhibited in vitro proliferation"}, {"measurement": "in vitro proliferation of B16F10 cells (optical density at 490 nm)", "setting": "B16F10 melanoma cells [3]", "result": "inhibited in vitro proliferation"}, {"measurement": "in vitro proliferation of Lewis Lung carcinoma cells (optical density at 490 nm)", "setting": "[4]", "result": "inhibited in vitro proliferation"}, {"measurement": "in vivo tumor growth (tumor volume) compared to untreated controls", "setting": "B16F10 melanoma cells [5]", "result": "neither TAXOL® (paclitaxel) nor C-45 inhibited in vivo tumor growth"}, {"measurement": "growth of B16F10 tumors in chick embryos, with or without TAXOL", "setting": "B16F10 melanoma cells [6]", "result": "inhibited the growth of the B16F10 tumors significantly"}]}
